Measurements taken from PMC5874699, “Antimicrobial and Antibiofilm Activity of UP-5, an Ultrashort Antimicrobial Peptide Designed Using Only Arginine and Biphenylalanine” (Pharmaceuticals, 2018).

What was measured:
[1] = test system: Staphylococcus aureus (ATCC 29213); assay type: cell-based; settings: S. aureus ATCC 29213, antibiotic alone, triplicate; for Antibiotics MBC Alone: 99.9% killing; for Antibiotics MIC Alone: microbroth dilution
Description: (§1) All bacterial susceptibility, biofilm, and synergistic assays of peptides, antibiotics, and peptides-antibiotics combinations used bacterial strains obtained from the American Type Tissue Culture Collection (ATCC, Manassas, VA, USA) that states the mechanism of resistance for each strain according to ATCC number. Gram-positive bacteria were represented by five strains, the wild type strain Staphylococcus aureus (ATCC 29213) and methicillin-resistant S. aureus (MRSA) (ATCC 33591) in addition to clinically isolated strains S. aureus (ATCC BAA-41& 43300) and Enterococcus faecalis (ATCC BAA-2316). The Gram-negative bacteria strains were represented by wild type strains of Escherichia coli (ATCC 25922 & 35218) and Pseudomonas aeruginosa (ATCC 27853) as well as the clinically isolated multidrug-resistant strain P. aeruginosa (ATCC BAA-2114). The bacteria were cultured onto Muller Hinton Agar (Scharlab, S.L, Barcelona, Spain). Mueller Hinton Broth (Oxoid Ltd., Basingstoke, UK) was used to prepare all bacterial suspensions and to dissolve the peptides and the antibiotics. The assay was performed in sterile 96-well polypropylene microtiter plates.
(§2) All bacterial susceptibility assays were conducted according to the microbroth dilution method outlined by the Clinical and Laboratory Standards Institute (CLSI) guidelines.
(§3) Briefly, pre-sterilized MHB was used as a growth medium for organisms obtained from stock media with glycerol. Bacterial cells were grown overnight in MHB and diluted to 10^6 CFU/mL in the same medium prior to use. For peptide, serial concentrations in the range of 0.5–100 μM were prepared. Then, 50 μL of each peptide concentration and 50 µL of diluted bacterial suspension were added to each well of a 96-well microtiter plate. Peptide solutions were prepared by dissolving the peptide in sterile MHB. Then, the plates were incubated overnight in a humidified atmosphere, and at 37 °C. Bacterial growth was determined by measuring the optical density (OD) at λ = 600 nm using an ELISA plate reader (Epoch, BioTek, Winooski, VT, USA) and the minimum inhibitory concentration (MIC) was determined.
(§4) As described in the previous section, the MIC and MBC values of antibiotics employed in this study were determined against subjected bacterial strains via preparing different concentrations of each antibiotic.

S. aureus (ATCC 43300) [2] = assay type: cell-based, Staphylococcus aureus; settings: S. aureus ATCC 43300, antibiotic alone, triplicate; for Antibiotics MBC Alone: 99.9% killing; for Antibiotics MIC Alone: microbroth dilution
Description: as §1, §2, §3, §4

S. aureus (ATCC BAA-41) [3] = assay type: cell-based, Staphylococcus aureus; settings: S. aureus ATCC BAA-41, antibiotic alone, triplicate; for Antibiotics MBC Alone: 99.9% killing; for Antibiotics MIC Alone: microbroth dilution
Description: as §1, §2, §3, §4

[4] = test system: methicillin-resistant S. aureus (MRSA) (ATCC 33591); experiment: MIC/MBC, microbroth dilution (CLSI); assay type: cell-based, Staphylococcus aureus; settings: S. aureus ATCC 33591, antibiotic alone, triplicate; for Antibiotics MBC Alone: 99.9% killing; for Antibiotics MIC Alone: microbroth dilution
Description: as §1, §2, §3, §4

[5] = test system: P. aeruginosa (ATCC BAA-2114); assay type: cell-based, Pseudomonas aeruginosa; settings: P. auroginosa ATCC BAA-2114, antibiotic alone, triplicate; for Antibiotics MBC Alone: 99.9% killing; for Antibiotics MIC Alone: microbroth dilution
Description: as §1, §2, §3, §4

S. aureus (ATCC 29213) = experiment: Broth microdilution checkerboard, UP-5 with antibiotics; assay type: cell-based, Staphylococcus aureus; settings: for Effect of the combination according to FIC value: S. aureus (ATCC 29213); for Antibiotics Reduction in MIC (%): antibiotic MIC in combination with UP-5 compared to MIC alone; for Antibiotics MIC in Combination: antibiotic in combination with UP-5, checkerboard, triplicate
Description: as §1
(§5) According to the broth microdilution checkerboard technique, the MIC and MBC values of peptide-antibiotics combinations against wild type and multidrug resistant bacterial strains were determined. Serial concentrations of peptide and each antibiotic were prepared in the range of 0.005–100 μM. In each well of a 96-well microtiter plate, 25 μL of each peptide concentration were added to 25 μL of each antibiotic concentration which is followed by adding 50 μL of diluted bacterial suspension (10^6 CFU/mL) to each well. The prepared concentrations of peptide and each antibiotic were arranged into rows and columns, respectively, in a 96-well microtiter plate according the checkerboard technique. Then as described previously (see Section 2.4.1), the procedure was followed. All MIC and MBC determinations of all assays were made in triplicate.
(§6) The fractional inhibitory concentration (FIC) is defined as the inhibitory concentration of the antimicrobial combination divided by that of the single antimicrobial component. To calculate FIC index for peptide-antibiotic combinations, the following equation was used:(1) FIC index=MIC of drug X in combination/MIC of drug X alone+MIC of drug Y in combination/MIC of drug Y alone
(§7) The FIC indices were interpreted as follows: ≤0.5: synergistic activity, 0.5–1: additive activity, 1–4 indifferent, >4: antagonism. Interpretation and assessment of the FIC indices were performed according to the broth microdilution checkerboard technique.

S. aureus (ATCC 33591) = experiment: as above; assay type: cell-based, Staphylococcus aureus; settings: for Effect of the combination according to FIC value: S. aureus (ATCC 33591); for Antibiotics Reduction in MIC (%): antibiotic MIC in combination with UP-5 compared to MIC alone; for Antibiotics MIC in Combination: antibiotic in combination with UP-5, checkerboard, triplicate
Description: as §1, §5, §6, §7

S. aureus (ATCC 43300) [6] = experiment: as above; assay type: cell-based, Staphylococcus aureus; settings: for Effect of the combination according to FIC value: S. aureus (ATCC 43300)
Description: as §1, §5, §6, §7

S. aureus (ATCC BAA-41) [7] = experiment: as above; assay type: cell-based, Staphylococcus aureus; settings: for Effect of the combination according to FIC value: S. aureus (ATCC BAA-41); for Antibiotics Reduction in MIC (%): antibiotic MIC in combination with UP-5 compared to MIC alone; for Antibiotics MIC in Combination: antibiotic in combination with UP-5, checkerboard, triplicate
Description: as §1, §5, §6, §7

[8] = test system: P. aeruginosa (ATCC BAA-2114); experiment: as above; assay type: cell-based, Pseudomonas aeruginosa; settings: for Effect of the combination according to FIC value: P. aeruginosa (ATCC 2114 as printed); for Antibiotics MIC in Combination: antibiotic in combination with UP-5, checkerboard, triplicate
Description: as §1, §5, §6, §7

| SMILES | Antibiotics MBC Alone [1] [µM] | Antibiotics MIC Alone [1] [µM] | Antibiotics MBC Alone (S. aureus (ATCC 43300) [2]) [µM] | Antibiotics MIC Alone (S. aureus (ATCC 43300) [2]) [µM] | Antibiotics MBC Alone (S. aureus (ATCC BAA-41) [3]) [µM] | Antibiotics MIC Alone (S. aureus (ATCC BAA-41) [3]) [µM] | Antibiotics MBC Alone [4] [µM] | Antibiotics MIC Alone [4] [µM] | Antibiotics MBC Alone [5] [µM] | Antibiotics MIC Alone [5] [µM] | Effect of the combination according to FIC value (S. aureus (ATCC 29213); antibiotic-UP-5 combination) | Antibiotics Reduction in MIC (%) (S. aureus (ATCC 29213); S. aureus ATCC 29213) | Antibiotics MIC in Combination (S. aureus (ATCC 29213); S. aureus ATCC 29213) [µM] | Effect of the combination according to FIC value (S. aureus (ATCC 33591); antibiotic-UP-5 combination) | Antibiotics Reduction in MIC (%) (S. aureus (ATCC 33591); S. aureus ATCC 33591) | Antibiotics MIC in Combination (S. aureus (ATCC 33591); S. aureus ATCC 33591) [µM] | Effect of the combination according to FIC value (S. aureus (ATCC 43300) [6]; antibiotic-UP-5 combination) | Effect of the combination according to FIC value (S. aureus (ATCC BAA-41) [7]; antibiotic-UP-5 combination) | Antibiotics Reduction in MIC (%) (S. aureus (ATCC BAA-41) [7]; S. aureus ATCC BAA-41) | Antibiotics MIC in Combination (S. aureus (ATCC BAA-41) [7]; S. aureus ATCC BAA-41) [µM] | also measured |
| --- | --- | --- | --- | --- | --- | --- | --- | --- | --- | --- | --- | --- | --- | --- | --- | --- | --- | --- | --- | --- | --- |
| C[C@H]1COc2c(N3CCN(C)CC3)c(F)cc3c(=O)c(C(=O)O)cn1c23 [Levofloxacin, levofloxacin] | 0.5 | 0.5 | 20 | 20 | 10 | 10 | 10 | 10 | 12 | 12 | synergistic (≤0.5: synergistic activity) | 90 | 0.05 | synergistic (≤0.5: synergistic activity) | 87.5 | 1.25 | synergistic (≤0.5: synergistic activity) | indifferent (1–4 indifferent) | <50 | 10 | Antibiotics Reduction in MIC (%) (S. aureus (ATCC 29213); S. aureus ATCC 29213, listed as levofloxacin): 87.5%; FIC Index (S. aureus (ATCC 29213); S. aureus ATCC 29213, antibiotic-UP-5 combination, checkerboard): 0.11; Antibiotics Reduction in MIC (%) (S. aureus (ATCC 33591); S. aureus ATCC 33591, listed as levofloxacin): 90%; FIC Index (S. aureus (ATCC 33591); S. aureus ATCC 33591, antibiotic-UP-5 combination, checkerboard): 0.13; Antibiotics MIC in Combination (S. aureus (ATCC 43300) [6]; S. aureus ATCC 43300, antibiotic in combination with UP-5, checkerboard, triplicate): 5 µM; FIC Index (S. aureus (ATCC 43300) [6]; S. aureus ATCC 43300, antibiotic-UP-5 combination, checkerboard): 0.25; FIC Index (S. aureus (ATCC BAA-41) [7]; S. aureus ATCC BAA-41, antibiotic-UP-5 combination, checkerboard): 2; Effect of the combination according to FIC value ([8]; antibiotic-UP-5 combination): additive (0.5–1: additive activity); Antibiotics Reduction in MIC (%) ([8]; P. auroginosa ATCC BAA-2114, antibiotic MIC in combination with UP-5 compared to MIC alone): 58.3%; Antibiotics MIC in Combination ([8]; P. auroginosa ATCC BAA-2114): 5 µM; FIC Index ([8]; P. auroginosa ATCC BAA-2114, antibiotic-UP-5 combination, checkerboard): 0.78 |
| CO[C@H]1/C=C/O[C@@]2(C)Oc3c(C)c(O)c4c(O)c(c(/C=N/N5CCN(C)CC5)c(O)c4c3C2=O)NC(=O)/C(C)=C\C=C\[C@H](C)[C@H](O)[C@@H](C)[C@@H](O)[C@@H](C)[C@H](OC(C)=O)[C@@H]1C [Rifampicin, rifampicin] | 0.025 | 0.025 | 1 | 1 | 0.005 | 0.005 | 0.04 | 0.04 | 50 | 50 | indifferent (1–4 indifferent) | <50 | 0.025 | synergistic (≤0.5: synergistic activity) | 87.5 | 0.005 | synergistic (≤0.5: synergistic activity) | indifferent (1–4 indifferent) | 60 | 0.002 | Antibiotics Reduction in MIC (%) (S. aureus (ATCC 43300) [6]; S. aureus ATCC 43300, antibiotic MIC in combination with UP-5 compared to MIC alone): 87.5%; Effect of the combination according to FIC value ([8]; antibiotic-UP-5 combination): synergistic (≤0.5: synergistic activity); Antibiotics MIC in Combination ([8]; P. auroginosa ATCC BAA-2114): 0.25 µM |
